Measured values from paper PMC12006171, “Marsupial cathelicidins: characterization, antimicrobial activity and evolution in this unique mammalian lineage” (Frontiers in Immunology, 2025).
In brackets after ≈: the same amount, converted by molar mass. Like-named read-outs stand apart in the source and are kept apart here. Where a SMILES comes first, the peptide text is derived from it.

How the values were obtained:
[1] = test system: Candida albicans Clinical isolate - human; test: microbe, parasite or virus in culture; assay type: cell-based; settings: Clinical isolate - human; read-out: MIC C. albicans
In short: (§1)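 Broth microdilution per CLSI M07-A/M26A; peptides in DMSO, final 64-0.125 μg/mL, inoculum 5 x 10^5 CFU/mL. Bacteria in MHB ± 10% lysed horse blood ± Ca/Mg cations, yeasts in RPMI-1640 MOPS; 35°C for 20–24 h. MIC is lowest concentration without visible growth.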

[2] = test system: Streptococcus agalactiae ATCC 12386; test: microbe, parasite or virus in culture; assay type: cell-based; settings: ATCC 12386; read-out: MIC S. agalactiae ATCC
In short: as §1

[3] = test system: Candida parapsilosis ATCC 22019; test: microbe, parasite or virus in culture; assay type: cell-based; settings: ATCC 22019
In short: as §1

Candida krusei ATCC 6258 = test: microbe, parasite or virus in culture; assay type: cell-based; settings: ATCC 6258; read-out: MIC C. krusei ATCC
In short: as §1

[4] = test system: Streptococcus agalactiae Clinical isolate - animal; test: microbe, parasite or virus in culture; assay type: cell-based; settings: clinical isolate - animal; read-out: MIC S. agalactiae
In short: as §1

[5] = test system: Streptococcus pneumoniae ATCC 49619; test: microbe, parasite or virus in culture; assay type: cell-based; settings: ATCC 49619; read-out: MIC S. pneumoniae ATCC
In short: as §1

E. coli ATCC 25922 = test: Killing kinetics (time kill assay); assay type: cell-based, Escherichia coli; settings: MHB, 35°C, sampled 1-24 hours, n = 2
Procedure: The killing kinetics assay was conducted using mid-logarithmic phase cultures of E. coli ATCC 25922 and S. aureus ATCC 29213 in MHB. Cultures were adjusted to a 0.5 McFarland standard, diluted in MHB, and then 100µL was added to each culture tube containing 10mL pre-warmed MHB to give a final inoculum concentration of 5 x 10^5 CFU/mL. A sterility control of 100uL MHB, growth control (no cathelicidin), and vehicle control (DMSO) were also included. Furthermore, 10uL was immediately removed from the growth control tube, diluted 1/1000 in saline and 100µL plated onto MHA in duplicate to confirm inoculum density. To establish colony counts from 0 hours of cathelicidin treatment, 200µL was removed from each culture tube and serially diluted ten-fold in saline from 10^0 to […] in a total volume of 200µL. Then, 10µL of each dilution was spotted onto MHA in duplicate, which were incubated at 35°C for 24 hours.
All culture tubes were then incubated at 35°C static. At 1, 2, 4, 6, 8, 10, 12, and 24 hours post-cathelicidin treatment, 200µL was removed from each culture tube for dilution and plated on MHA as described above. […] Counts of duplicates were averaged, and the log10 CFU/mL graphed against time. This was used as input for one-way ANOVA (p < 0.05) followed by Dunnett’s post hoc test.

[6] = test system: Staphylococcus aureus ATCC 29213; test: microbe, parasite or virus in culture; assay type: cell-based; settings: ATCC 29213; read-out: MIC S. aureus ATCC
In short: (§2)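 Broth microdilution per CLSI M07-A/M26A: DMSO-solubilized cathelicidin mature peptides at final 64-0.125μg/mL in Mueller Hinton broth (with or without 10% lysed horse blood, with or without calcium/magnesium), final inoculum 5 x 10^5 CFU/mL, 35°C for 20–24 hours. MIC = lowest concentration preventing visible growth.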

[7] = test system: Staphylococcus aureus clinical isolate - animal; test: microbe, parasite or virus in culture; assay type: cell-based; settings: clinical isolate - animal; read-out: MIC S. aureus
In short: as §2

[8] = test system: Pseudomonas aeruginosa ATCC 27853; test: microbe, parasite or virus in culture; assay type: cell-based
In short: as §2

[9] = test system: Pseudomonas aeruginosa clinical isolate - animal; test: microbe, parasite or virus in culture; assay type: cell-based
In short: as §2

[10] = test system: Escherichia coli clinical isolate - animal; test: microbe, parasite or virus in culture; assay type: cell-based
In short: as §2

[11] = test system: Escherichia coli ATCC 25922; test: microbe, parasite or virus in culture; assay type: cell-based
In short: as §2

[12] = test system: six bacteria (S. aureus, E. coli, P. aeruginosa; ATCC and clinical isolate); assay type: cell-based
In short: as §2

[13] = test system: Tasmanian devil facial tumor disease; settings: cited from earlier work
Excerpt: Many marsupial and monotreme cathelicidins were closely related to the classic cathelicidins found in eutherians. These cathelicidins sit within clade II in the phylogenetic tree, sister to eutherians but were not orthologous ( Figure 3 ). Classic marsupial cathelicidins were encoded in cluster A in the genome of all marsupials and monotremes studied, syntenic to the single cathelicidin gene/cluster in eutherians ( Figure 2 ). Many of these were antimicrobial and bactericidal, with MICs equal to or less than eutherian peptides such as cow BMAP-27 and -28 ([87]) and human LL-37, including again ...

[14] = test system: three fungi (Candida krusei, Candida parapsilosis, Candida albicans); set-up: method as in 4 sources, ref Peel et al 2016 ||| ref Peel et al 2021 ||| ref Wang et al 2011 ||| ref Peel et al 2017; settings: mature peptide; Y/N summary from earlier study; ref Peel et al 2016; cited from earlier work
[15] = test system: six bacteria (S. aureus, E. coli, P. aeruginosa; ATCC and clinical isolate); set-up: method as in 4 sources, ref Peel et al 2016 ||| ref Peel et al 2021 ||| ref Wang et al 2011 ||| ref Peel et al 2017; settings: mature peptide; Y/N summary from earlier study; ref Peel et al 2016; cited from earlier work
[16] = MHB without cations, 5 x 10^5 CFU/mL, 35°C 20–24 hours, duplicate
[17] = superscript value, cation-adjusted Mueller Hinton broth
[18] = value in brackets, 99.9% reduction in CFU/mL
[19] = clinical isolate, MHB without cations, 5 x 10^5 CFU/mL, 35°C 20–24 hours, duplicate
[20] = clinical isolate, superscript value, cation-adjusted Mueller Hinton broth
[21] = clinical isolate, value in brackets, 99.9% reduction in CFU/mL

CC[C@H](C)[C@H](NC(=O)[C@H](CCCCN)NC(=O)[C@@H](NC(=O)[C@H](CC(N)=O)NC(=O)[C@H](CCCCN)NC(=O)[C@H](CC(C)C)NC(=O)[C@H](CCCNC(=N)N)NC(=O)[C@H](CCCCN)NC(=O)[C@H](CCCCN)NC(=O)[C@@H](NC(=O)[C@H](CO)NC(=O)[C@H](CCCCN)NC(=O)CNC(=O)[C@H](CC(C)C)NC(=O)[C@H](CCCCN)NC(=O)[C@H](CCCCN)NC(=O)[C@H](CC(C)C)NC(=O)[C@H](CCCCN)NC(=O)[C@H](CCCCN)NC(=O)[C@H](CCCNC(=N)N)NC(=O)[C@H](CC(C)C)NC(=O)CNC(=O)[C@H](CCCNC(=N)N)NC(=O)[C@@H](N)CO)[C@@H](C)CC)[C@@H](C)CC)C(=O)NCC(=O)N[C@@H](Cc1ccc(O)cc1)C(=O)N[C@@H](CO)C(=O)N[C@H](C(=O)N1CCC[C@H]1C(=O)N[C@@H](Cc1ccccc1)C(=O)N1CCC[C@H]1C(=O)NCC(=O)O)[C@@H](C)CC [PspeCath1] (H-SRGLRKKLKKLGKSIKKRLKNIKIGYSIPFPG-OH; N-terminus and C-terminus assumed)
MIC [1]: >17.5 µM | MIC [2]: >17.5 µM | MFC C. parapsilosis ATCC [3]: > 17.5 µM | MIC ([3]; read-out: MIC C. parapsilosis ATCC): 8.75 µM (≈ 32 µg/mL) | MIC (Candida krusei ATCC 6258): >17.5 µM | MIC [4]: >17.5 µM | MIC [5]: >17.5 µM | Number of hours to cause a significant reduction in log CFU/mL of E. coli ATCC (p < 0.05) (E. coli ATCC 25922; 0.5x MIC): 2 hours | Number of hours to cause a significant reduction in log CFU/mL of E. coli ATCC (p < 0.05) (E. coli ATCC 25922; 2x MIC): 1 hours | Number of hours to cause a significant reduction in log CFU/mL of E. coli ATCC (p < 0.05) (E. coli ATCC 25922; MIC): 2 hours | MIC [6]: >17.5 µM | MIC [7]: >17.5 µM | MBC P. aeruginosa ATCC ([8]; ATCC 27853): 2.1 (2.1)^2.1 µM | MIC P. aeruginosa ATCC ([8]; ATCC 27853): 2.1 (2.1)^2.1 µM | MIC in the presence of cations P. aeruginosa ATCC ([8]; ATCC 27853): 2.1 (2.1)^2.1 µM | MIC P. aeruginosa ATCC [8, 16]: 8 (8)^8 µg/mL | MIC in the presence of cations P. aeruginosa ATCC [8, 17]: 8 (8)^8 µg/mL | MBC P. aeruginosa ATCC [8, 18]: 8 (8)^8 µg/mL | MBC P. aeruginosa ([9]; clinical isolate - animal): 4.3 µM | MIC ([9]; clinical isolate - animal, read-out: MIC P. aeruginosa): 2.1 µM (≈ 7.67 µg/mL) | MIC ([9]; clinical isolate - animal, read-out: MIC in the presence of cations P. aeruginosa): 2.1 µM | MIC P. aeruginosa [9, 19]: 8 µg/mL (≈ 2.19 µM) | MIC in the presence of cations P. aeruginosa [9, 20]: 8 µg/mL | MBC P. aeruginosa [9, 21]: 16 µg/mL | MBC E. coli ([10]; clinical isolate - animal): 1 µM | MIC ([10]; clinical isolate - animal): 1 µM (≈ 3.65 µg/mL) | MIC in the presence of cations E. coli ([10]; clinical isolate - animal): 0.5 µM | MIC E. coli [10, 19]: 4 µg/mL (≈ 1.09 µM) | MIC in the presence of cations E. coli [10, 20]: 2 µg/mL | MBC E. coli [10, 21]: 4 µg/mL | MBC E. coli ATCC ([11]; ATCC 25922): 2.1 µM | MIC ([11]; ATCC 25922, read-out: MIC E. coli ATCC): 1 µM (≈ 3.65 µg/mL) | MIC ([11]; ATCC 25922, read-out: MIC in the presence of cations E. coli ATCC): 1 µM | MIC E. coli ATCC [11, 16]: 4 µg/mL (≈ 1.09 µM) | MIC in the presence of cations E. coli ATCC [11, 17]: 4 µg/mL | MBC E. coli ATCC [11, 18]: 8 µg/mL | MIC against at least one strain [12]: 4 µg/mL (≈ 1.09 µM)

KIKRIGLGGFIGRILDRIRRLG [SahaCath5, Tasmanian devil cathelicidin, reference compound]
Toxicity to Tasmanian devil facial tumor disease [13]: toxic to Tasmanian devil facial tumor disease | Antifungal (MIC <64ug/mL) [14]: Y (Peel et al 2016) (Antifungal (MIC <64ug/mL)) | Antibacterial (MIC <64ug/mL) [15]: Y (Peel et al 2016) (Antibacterial (MIC <64ug/mL))

KRIRFFERIRDRLRDLGNRIKNRIRDFFS [SahaCath6, Tasmanian devil cathelicidin, reference compound]
Toxicity to Tasmanian devil facial tumor disease [13]: toxic to Tasmanian devil facial tumor disease | Antifungal (MIC <64ug/mL) [14]: Y (Peel et al 2016) (Antifungal (MIC <64ug/mL)) | Antibacterial (MIC <64ug/mL) [15]: Y (Peel et al 2016) (Antibacterial (MIC <64ug/mL))
